Tested on: blood samples obtained from a healthy individual
Format: cell-based
Method: The hemolytic activity of the peptides was obtained, according to a previously described procedure. Briefly, blood samples obtained from a healthy individual were centrifuged at 2000 g for 10 min at 4 °C and then washed with PBS 1X three times. The supernatant was diluted with PBS 1X until reaching a concentration of 6 × 10^8 cells/mL. Assays were performed in duplicate with the peptides at concentrations of 5 and 50 µM, including AMP from Bothrops asper. Triton X-100 (Sigma Aldrich) at 0.5% was used as positive control and PBS 1X as negative control. The assay is performed by mixing 65 µL of the cell suspension with 65 µL of each peptide at the indicated concentrations, and 65 µL of each control, incubating at 37 °C for 1 h. The samples are centrifuged at 3000 g for 5 min; 80 µL of supernatant is taken and placed in a 96-well plate together with 80 µL of milliQ water to finally measure its absorbance at 540 nm.
Hemolysis is calculated according to Equation (1). (1) %Hemolysis=[…]

Substance: triton X-100
- Hemolytic activity: hemolysis was only observed
